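Test compounds were applied to cells in 96-well plates for 48 hours at 5 doses. At the GI50, growth is halved. At the TGI there is no net growth.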 Where a SMILES comes first, the peptide text is derived from it. [ ]: non-standard residue; d: D form. The star is where a group is joined. ξ: configuration not given here. ξF = NC(Cc1ccccc1)C(=O)O; Cbz = O=C(OCc1ccccc1)*; Aib = CC(C)(N)C(=O)O
Columns and labels:
Test in all cases: NCI-60 cell line screen, 48 h
HCC-2998 colon = system: HCC-2998 colon
HCT-15 colon = system: HCT-15 colon
HT29 colon = system: HT29 colon
MALME-3M melanoma = system: MALME-3M melanoma
NCI-H460 lung = system: NCI-H460 lung
OVCAR-5 ovarian = system: OVCAR-5 ovarian
OVCAR-8 ovarian = system: OVCAR-8 ovarian
SW-620 colon = system: SW-620 colon
TK-10 renal = system: TK-10 renal
U251 CNS = system: U251 CNS

For `CCCCOCc1cc(CN2CCN(C)CC2)c(O)c2ncccc12`, the TGI (HCC-2998 colon) was 90.2 µM, the TGI (HCT-15 colon) was 33.7 µM and the TGI (HT29 colon) was greater than 100 µM. For the same compound, the TGI (MALME-3M melanoma) was greater than 100 µM, the TGI (NCI-H460 lung) was greater than 100 µM and the TGI (OVCAR-5 ovarian) was 95.8 µM. The TGI (OVCAR-8 ovarian) was greater than 100 µM, the TGI (SW-620 colon) was 81.4 µM and the TGI (TK-10 renal) was greater than 100 µM. For the same compound, the TGI (U251 CNS) was 44.4 µM.
With `Cc1ccc(C(O)(c2ccc(C)cc2)c2ccccn2)cc1` the TGI (HCC-2998 colon) was greater than 100 µM, the TGI (HCT-15 colon) was greater than 100 µM and the TGI (HT29 colon) was greater than 100 µM. For the same compound, the TGI (MALME-3M melanoma) was greater than 100 µM, the TGI (NCI-H460 lung) was greater than 100 µM and the TGI (OVCAR-5 ovarian) was greater than 100 µM. The TGI (OVCAR-8 ovarian) was greater than 100 µM, the TGI (SW-620 colon) was greater than 100 µM and the TGI (TK-10 renal) was greater than 100 µM. For the same compound, the TGI (U251 CNS) was greater than 100 µM.
In the case of `CC(=O)ON1C(=O)c2cccc3cccc(c23)C1=O`, the TGI (HCC-2998 colon) is reported as greater than 100 µM, the TGI (HCT-15 colon) is reported as greater than 100 µM and the TGI (HT29 colon) is reported as greater than 100 µM. For the same compound, the TGI (MALME-3M melanoma) was 45 µM, the TGI (NCI-H460 lung) was 41.7 µM and the TGI (OVCAR-5 ovarian) was greater than 100 µM. For the same compound, the TGI (OVCAR-8 ovarian) was greater than 100 µM, the TGI (SW-620 colon) was greater than 100 µM and the TGI (TK-10 renal) was 88.5 µM. For the same compound, the TGI (U251 CNS) was greater than 100 µM.
In the case of `C(=N\OCCc1ccccc1)/c1cccnc1`, the TGI (HCC-2998 colon) is reported as greater than 100 µM, the TGI (HCT-15 colon) is reported as greater than 100 µM and the TGI (HT29 colon) is reported as greater than 100 µM. It also gave a TGI (MALME-3M melanoma) greater than 100 µM, a TGI (NCI-H460 lung) greater than 100 µM and a TGI (OVCAR-5 ovarian) greater than 100 µM. It also gave a TGI (OVCAR-8 ovarian) greater than 100 µM, a TGI (SW-620 colon) greater than 100 µM and a TGI (TK-10 renal) greater than 100 µM. It also gave a TGI (U251 CNS) greater than 100 µM.
In the case of `COC(=O)C(C)(C)NC(=O)C(Cc1ccccc1)NC(=O)C(C)(C)NC(=O)OCc1ccccc1` (stereo not given) (Cbz-[Aib]-[ξF]-[Aib]-OMe), the TGI (HCC-2998 colon) is reported as greater than 100 µM, the TGI (HCT-15 colon) is reported as greater than 100 µM and the TGI (HT29 colon) is reported as greater than 100 µM. It also gave a TGI (MALME-3M melanoma) greater than 100 µM, a TGI (NCI-H460 lung) greater than 100 µM and a TGI (OVCAR-5 ovarian) greater than 100 µM. It also gave a TGI (OVCAR-8 ovarian) greater than 100 µM, a TGI (SW-620 colon) greater than 100 µM and a TGI (TK-10 renal) greater than 100 µM. It also gave a TGI (U251 CNS) greater than 100 µM.
`NCCSCc1ccccc1Cl` showed a TGI (HCC-2998 colon) of 38.7 µM, a TGI (HCT-15 colon) greater than 100 µM and a TGI (HT29 colon) greater than 100 µM. It also gave a TGI (MALME-3M melanoma) greater than 100 µM, a TGI (NCI-H460 lung) greater than 100 µM and a TGI (OVCAR-5 ovarian) greater than 100 µM. For the same compound, the TGI (OVCAR-8 ovarian) was greater than 100 µM, the TGI (SW-620 colon) was greater than 100 µM and the TGI (TK-10 renal) was 74 µM. For the same compound, the TGI (U251 CNS) was greater than 100 µM.
`Nc1nc2ccc(OCC(O)CN3CCCCC3)cc2[n+]([O-])n1` (stereo not given) was tested, and the TGI (HCC-2998 colon) was greater than 100 µM, the TGI (HCT-15 colon) was greater than 100 µM and the TGI (HT29 colon) was greater than 100 µM. For the same compound, the TGI (MALME-3M melanoma) was greater than 100 µM, the TGI (NCI-H460 lung) was greater than 100 µM and the TGI (OVCAR-5 ovarian) was greater than 100 µM. The TGI (OVCAR-8 ovarian) was greater than 100 µM, the TGI (SW-620 colon) was greater than 100 µM and the TGI (TK-10 renal) was greater than 100 µM. For the same compound, the TGI (U251 CNS) was greater than 100 µM.
In the case of `Nc1c(-c2ccccc2[N+](=O)[O-])nc2ccccn12`, the TGI (HCC-2998 colon) is reported as greater than 100 µM, the TGI (HCT-15 colon) is reported as greater than 100 µM and the TGI (HT29 colon) is reported as greater than 100 µM. The TGI (MALME-3M melanoma) was greater than 100 µM, the TGI (NCI-H460 lung) was greater than 100 µM and the TGI (OVCAR-5 ovarian) was greater than 100 µM. The TGI (OVCAR-8 ovarian) was greater than 100 µM, the TGI (SW-620 colon) was greater than 100 µM and the TGI (TK-10 renal) was greater than 100 µM. For the same compound, the TGI (U251 CNS) was greater than 100 µM.
`COc1cc(-c2n/c(=C\c3c(O)[nH]c4cc(Cl)ccc34)cc3c2=Nc2ccccc2-3)cc(OC)c1OC` showed a GI50 (HCC-2998 colon) of 7.32 µM, a TGI (HCC-2998 colon) greater than 100 µM and a GI50 (HCT-15 colon) of 30.9 µM. It also gave a TGI (HCT-15 colon) greater than 100 µM, a GI50 (HT29 colon) of 2.67 µM and a TGI (HT29 colon) of 7.05 µM. For the same compound, the GI50 (MALME-3M melanoma) was 2.98 µM, the TGI (MALME-3M melanoma) was 9.41 µM and the GI50 (NCI-H460 lung) was 4.56 µM. For the same compound, the TGI (NCI-H460 lung) was 81.7 µM, the GI50 (OVCAR-5 ovarian) was 18.3 µM and the TGI (OVCAR-5 ovarian) was greater than 100 µM. It also gave a GI50 (OVCAR-8 ovarian) of 4.6 µM, a TGI (OVCAR-8 ovarian) of 29.2 µM and a GI50 (SW-620 colon) of 4.07 µM. The TGI (SW-620 colon) was 54.9 µM, the GI50 (TK-10 renal) was 2.34 µM and the TGI (TK-10 renal) was 5.26 µM. It also gave a GI50 (U251 CNS) of 1.71 µM and a TGI (U251 CNS) of 3.36 µM.
For `CC(C)(CCCCC(C)(C)C1NC(=O)N1)C1NC(=O)N1`, the TGI (HCC-2998 colon) was greater than 10 µM, the TGI (HCT-15 colon) was greater than 10 µM and the TGI (HT29 colon) was greater than 10 µM. For the same compound, the TGI (MALME-3M melanoma) was greater than 10 µM, the TGI (NCI-H460 lung) was greater than 10 µM and the TGI (OVCAR-5 ovarian) was greater than 10 µM. The TGI (OVCAR-8 ovarian) was greater than 10 µM, the TGI (SW-620 colon) was greater than 10 µM and the TGI (TK-10 renal) was greater than 10 µM. It also gave a TGI (U251 CNS) greater than 10 µM.
`c1cncc(O[Si](Oc2cccnc2)(Oc2cccnc2)Oc2cccnc2)c1` showed a TGI (HCC-2998 colon) greater than 100 µM, a TGI (HCT-15 colon) greater than 100 µM and a TGI (HT29 colon) greater than 100 µM. For the same compound, the TGI (MALME-3M melanoma) was greater than 100 µM, the TGI (NCI-H460 lung) was greater than 100 µM and the TGI (OVCAR-5 ovarian) was greater than 100 µM. It also gave a TGI (OVCAR-8 ovarian) greater than 100 µM, a TGI (SW-620 colon) greater than 100 µM and a TGI (TK-10 renal) greater than 100 µM. It also gave a TGI (U251 CNS) greater than 100 µM.
With `C[CH2][Ge]([CH2]C)([CH2]C)[O]C(=O)CCC(=O)[O][Ge]([CH2]C)([CH2]C)[CH2]C` the GI50 (HCC-2998 colon) was 90.9 µM, the TGI (HCC-2998 colon) was greater than 100 µM and the GI50 (HCT-15 colon) was 48.4 µM. It also gave a TGI (HCT-15 colon) greater than 100 µM, a GI50 (HT29 colon) of 40.2 µM and a TGI (HT29 colon) greater than 100 µM. It also gave a GI50 (MALME-3M melanoma) of 79.3 µM, a TGI (MALME-3M melanoma) greater than 100 µM and a GI50 (NCI-H460 lung) of 24.8 µM. For the same compound, the TGI (NCI-H460 lung) was greater than 100 µM, the GI50 (OVCAR-5 ovarian) was greater than 100 µM and the TGI (OVCAR-5 ovarian) was greater than 100 µM. It also gave a GI50 (OVCAR-8 ovarian) of 34.7 µM, a TGI (OVCAR-8 ovarian) greater than 100 µM and a GI50 (SW-620 colon) greater than 100 µM. It also gave a TGI (SW-620 colon) greater than 100 µM, a GI50 (TK-10 renal) greater than 100 µM and a TGI (TK-10 renal) greater than 100 µM. For the same compound, the GI50 (U251 CNS) was 43.3 µM and the TGI (U251 CNS) was greater than 100 µM.

From PubChem BioAssay (NCI)
